In patent publication US11166958B2, “4-pyrazin-2-ylmethyl-morpholine derivatives and the use thereof as medicament” (Boehringer Ingelheim International GmbH, priority 2018, dated 2021):

Key:
human MDR1 (P-gp) = human MDR1 (P-gp) (Homo sapiens (Human), UniProt P08183); test: MDCK assay P-gp: permeability across MDCK-MDR1 monolayers; assay type: in vitro ADME; settings: for Papp A→B at 2 h: MDCK-MDR1, apical-to-basal, pH 7.4; for efflux ratio at 2 h: pH 7.4, MDCK-MDR1, Papp (b-a) / Papp (a-b), read-out: efflux ratio PEBA/PEAB
Description: The MDCK assays provide information on the potential of a compound to pass the blood brain barrier. Permeability measurements across polarized, confluent MDCK-MDR1 cell monolayers grown on permeable filter supports are used as an in vitro absorption model: apparent permeability coefficients (PE) of the compounds across the MDCK-MDR1 cell monolayers are measured (pH 7.4, 37° C.) in apical-to-basal (AB) and basal-to-apical (BA) transport direction. The AB permeability (PEAB) represents drug absorption from the blood into the brain and the BA permeability (PEBA) drug efflux from the brain back into the blood via both, passive permeability as well as active transport mechanisms mediated by efflux and uptake transporters that are expressed on the MDCK-MDR1 cells, predominantly by the overexpressed human MDR1. Identical or similar permeabilities in both transport directions indicate passive permeation (PEBA/PEAB≤1), vectorial permeability points to additional active transport mechanisms. Higher PEBA than PEAB (PEBA/PEAB>5) indicates the involvement of active efflux mediated by MDR1, which might compromise the goal to achieve sufficient brain exposure. Therefore, this assay provides valuable support for selection of compounds applicable for further in vivo testing. High permeability not limited by efflux at the blood brain barrier is a favourable characteristic for compounds that are to be used for drugs acting primarily in the CNS.
Apparent permeability coefficients (Papp) of the compounds across the MDCK-MDR1 monolayers (MDCKII cells transfected with human MDR1 cDNA expression plasmid) are measured in apical-to-basal (AB) and basal-to-apical (BA) direction.
MDCK-MDR1 cells (6×10^5 cells/cm^2) are seeded on filter inserts (Corning, Transwell, polycarbonate, 0.4 μm pore size) and cultured for 9 to 10 days. Compounds dissolved in DMSO stock solution (1-20 mM) are diluted with HTP-4 aqueous buffer (128.13 mM NaCl, 5.36 mM KCl, 1 mM MgSO4, 1.8 mM CaCl2, 4.17 mM NaHCO3, 1.19 mM Na2HPO4, 0.41 mM NaH2PO4, 15 mM HEPES, 20 mM glucose, pH 7.4) supplemented with 0.25% BSA to prepare the transport solutions (final concentration: 1 or 10 μM, final DMSO<=0.5%). The transport solution is applied to the apical or basolateral donor side for measuring A-B or B-A permeability, respectively. The receiver side contains HTP-4 buffer supplemented with 0.25% BSA. Samples are collected at the start and end of experiment from the donor and at various time intervals for up to 2 hours also from the receiver side for concentration measurement by HPLC-MS/MS (RapidFire High-throughput MS System (Agilent) coupled to QTrap 6500 (AB Sciex) or TSQ Vantage (Thermo Scientific)). Sampled receiver volumes are replaced with fresh receiver solution. Efflux ratio is calculated dividing the Papp (b-a) values by the Papp (a-b) values.

[1] = Metabolic stability in pooled human liver microsomes; assay type: in vitro ADME; settings: pH 7.6, 1 μM compound, 1 mg/mL microsomal protein, 37° C., NADPH, read-out: Half-life − t½ human liver microsomes
Text: Stability in human liver microsomes refers to the susceptibility of compounds to biotransformation in the context of selecting and/or designing drugs with favorable pharmacokinetic properties. The primary site of metabolism for many drugs is the liver. Human liver microsomes contain the cytochrome P450s (CYPs), and thus represent a model system for studying drug metabolism in vitro Enhanced stability in human liver microsomes is associated with several advantages, including increased bioavailability and adequate half-life, which can enable lower and less frequent dosing of patients.
The metabolic degradation of the test compound was assayed at 37° C. with pooled human liver microsomes. The final incubation volume of 60 μl per time point contains TRIS buffer pH 7.6 at room temperature (0.1 M), magnesium chloride (5 mM aqueous solution), microsomal protein (1 mg/mL for human) and the test compound at a final concentration of 1 μM. Following a short preincubation period at 37° C., the reactions were initiated by addition of betanicotinamide adenine dinucleotide phosphate, reduced form (NADPH, 1 mM), and terminated by transferring an aliquot into acetonitril after different time points. After centrifugation (10000 g, 5 min), an aliquot of the supernatant was assayed by HPLC-MS/MS as described above for the MDCK assay P-gp for the amount of parent compound. The half-life was determined by the slope of the semi-logarithmic plot of the concentration-time profile.

human MDR1 (P-gp), sequence (P08183 whole entry): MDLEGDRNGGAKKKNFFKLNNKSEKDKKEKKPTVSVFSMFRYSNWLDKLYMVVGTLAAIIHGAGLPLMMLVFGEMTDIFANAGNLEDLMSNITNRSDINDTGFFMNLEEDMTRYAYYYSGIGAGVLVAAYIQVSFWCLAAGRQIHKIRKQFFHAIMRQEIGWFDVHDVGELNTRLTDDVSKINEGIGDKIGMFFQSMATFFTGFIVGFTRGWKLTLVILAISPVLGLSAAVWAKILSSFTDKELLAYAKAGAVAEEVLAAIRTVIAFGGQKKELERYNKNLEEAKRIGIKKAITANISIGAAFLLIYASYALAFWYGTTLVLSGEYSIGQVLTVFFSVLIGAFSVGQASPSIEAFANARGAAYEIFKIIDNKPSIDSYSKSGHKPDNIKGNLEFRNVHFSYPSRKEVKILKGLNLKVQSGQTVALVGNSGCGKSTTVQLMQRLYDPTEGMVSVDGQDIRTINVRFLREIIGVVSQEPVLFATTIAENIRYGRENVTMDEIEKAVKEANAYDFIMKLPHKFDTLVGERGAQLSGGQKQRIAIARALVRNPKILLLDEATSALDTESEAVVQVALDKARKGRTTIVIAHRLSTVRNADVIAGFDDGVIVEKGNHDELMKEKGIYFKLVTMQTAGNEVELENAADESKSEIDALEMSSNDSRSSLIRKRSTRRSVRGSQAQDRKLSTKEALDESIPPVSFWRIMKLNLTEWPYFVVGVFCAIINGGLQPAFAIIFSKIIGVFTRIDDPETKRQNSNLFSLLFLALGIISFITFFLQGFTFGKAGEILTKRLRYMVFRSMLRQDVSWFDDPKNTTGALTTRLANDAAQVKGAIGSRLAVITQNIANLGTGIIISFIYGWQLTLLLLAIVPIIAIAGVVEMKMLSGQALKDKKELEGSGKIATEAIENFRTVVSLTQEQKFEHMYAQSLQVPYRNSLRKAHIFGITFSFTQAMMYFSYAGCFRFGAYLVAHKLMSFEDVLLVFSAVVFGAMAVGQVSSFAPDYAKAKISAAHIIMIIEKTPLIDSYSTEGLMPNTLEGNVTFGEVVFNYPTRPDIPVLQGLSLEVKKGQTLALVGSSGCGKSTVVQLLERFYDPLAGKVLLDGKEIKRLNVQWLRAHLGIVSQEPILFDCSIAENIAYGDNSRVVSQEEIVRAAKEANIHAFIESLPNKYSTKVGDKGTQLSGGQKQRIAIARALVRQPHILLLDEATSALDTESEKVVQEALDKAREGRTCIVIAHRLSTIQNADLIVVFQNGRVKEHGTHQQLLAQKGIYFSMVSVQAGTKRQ

Row | Papp A→B at 2 h (human MDR1 (P-gp)) [×10⁻⁶ cm/s] | efflux ratio at 2 h (human MDR1 (P-gp)) | half-life at 1 µM [1] [h] | SMILES
1 | 59 | 0.7 | > 2.17 | CNC(=O)[C@@H]1CN(Cc2cnc(Oc3ccc(F)cc3)cn2)CCO1 [Example 1]
2 | 76 | 0.6 | > 2.17 | CNC(=O)[C@@H]1CN(Cc2cnc(Oc3ccc(C)cc3F)cn2)CCO1 [Example 2]
3 | 75 | 0.7 | > 2.17 | CNC(=O)[C@@H]1CN(Cc2cnc(Oc3ccc(C)cc3)cn2)CCO1 [Example 3]
4 | 61 | 0.7 | > 2.17 | CNC(=O)[C@@H]1CN(Cc2cnc(Oc3ccc(C)cc3C)cn2)CCO1 [Example 4]
5 | 59 | 0.8 | > 2.17 | CNC(=O)[C@@H]1CN(Cc2cnc(Oc3ccc(Cl)cc3F)cn2)CCO1 [Example 5]
6 | 71 | 0.8 | > 2.17 | CNC(=O)[C@@H]1CN(Cc2cnc(Oc3ccc(F)cc3F)cn2)CCO1 [Example 6]
7 | 66 | 0.7 | > 2.17 | CNC(=O)[C@@H]1CN(Cc2cnc(Oc3ccc(Cl)cc3)cn2)CCO1 [Example 7]
8 | 70 | 0.6 | > 2.17 | CNC(=O)[C@@H]1CN(Cc2cnc(Oc3ccc(F)cc3C)cn2)CCO1 [Example 8]
9 | 62 | 0.9 | > 2.17 | CNC(=O)[C@@H]1CN(Cc2cnc(Oc3ccccc3F)cn2)CCO1 [Example 9]
10 | 61 | 0.8 | > 2.17 | CNC(=O)[C@@H]1CN(Cc2cnc(Oc3ccccc3Cl)cn2)CCO1 [Example 18]
11 | 81 | 0.4 | > 2.17 | CCNC(=O)[C@@H]1CN(Cc2cnc(Oc3ccc(F)cc3F)cn2)CCO1 [Example 30]
12 | 66 | 0.6 | > 2.17 | CCNC(=O)[C@@H]1CN(Cc2cnc(Oc3ccc(C)cc3F)cn2)CCO1 [Example 31]
13 | 59 | 0.7 | > 2.17 | CCNC(=O)[C@@H]1CN(Cc2cnc(Oc3ccccc3Cl)cn2)CCO1 [Example 33]
